Assay results taken from patent US20230348475A1, “IMIDAZOPYRIDAZINE AND IMIDAZOPYRAZINE COMPOUNDS AS INHIBITORS OF CDK7” (THE TRANSLATIONAL GENOMICS RESEARCH INSTITUTE, priority 2020, published 2023).
Where a name gives a salt, the structure may show the parent alone.

Assays:
[1] = target: CDK7/CycH/MAT1 (Homo sapiens, UniProt P50613); test: Kinase Glo (ADP-Glo) biochemical assay, CDK7; settings: CDK7/CycH/MAT1 40 ng, ATP 1 μM, 60 minutes at RT, luminescence
Protocol: Materials: • Assay Buffer: 50 mM HEPES, 3 mM MgCl2, 3 mM MnCl2, 1 mM DTT, 3 μM Na3VO4, pH 7.5 • Substrate RB • CTF Peptide (ProQinase #: 0040-0000-6) • Enzymes • CDK7/CycH/MAT1 (ProQinase #: 0366-0360-4) • ADP-Glo™ Assay (Promega #: V9101) • ATP: 10 mM • ADP-Glo™ Reagent • Kinase Detection Reagent • 384-well white assay plates
A ten point serial dilution of compound was prepared at 5X concentration in assay buffer with the final assay concentrations starting at 30 μM, 10 μM, 3 μM, 1 μM . . . 0 μM. Enzyme, substrate, and ATP were used at 40 ng, 200 ng (or 400 ng)* and 1 μM, respectively. The assay plate was set up by mixing the components in a total reaction volume of 10 μL per well. The plate was centrifuged gently for 10 seconds and incubated at room temperature (RT) for 60 minutes in the dark. The ADP-Glo Reagent and kinase detection reagent were added and incubated as recommended. The reaction was quantified by measuring luminescence on the Perkin Elmer Envision plate reader.

[2] = system: MiaPaCa2 pancreatic cancer cell line; test: Cell viability assay (Cell Titer Glo), MiaPaCa2; format: cell-based; settings: Homo sapiens, MIA PaCa-2; Table 7a; pancreatic cancer cell line, 72 hour incubation
Protocol: (§1) Materials: • Cell Lines (Treated according to ATCC guidelines) • Cell Titer Glo (Promega Cat #G7572) • DMSO • 96-well White Tissue Culture Treated Plates (Perkin Elmer Cat #60005680)
(§2) Cells were seeded in a white 96-well tissue culture treated plate at a density of 1500 cells in 90 μL of media per well and allowed to settle overnight. A ten point serial dilution of drugs was prepared at 10×concentration in media with the final assay concentrations starting at 30 μM, 10 μM, 3 μM, 1 μM, 0.3 μM . . . 0 μM. A dilution of DMSO was included as a control. The assay was set up by adding 10 μL of the corresponding drug to each well in duplicate, followed by a 72 hour incubation at 37° C., 5% CO2. Cell viability was quantified by adding 90 μL of Cell Titer Glo to each well and incubating at room temperature for 10 minutes. The reaction was quantified by measuring luminescence using the Envision Plate Reader. Data was analyzed using Graphpad Prism 7 software.

[3] = system: HPAC pancreatic cancer cell line; test: Cell viability assay (Cell Titer Glo), HPAC; format: cell-based; settings: Homo sapiens, HPAC; Table 7a; pancreatic cancer cell line, 72 hour incubation
Protocol: as §1, §2

[4] = system: Kasumi1 leukemia cancer cell line; test: Cell viability assay (Cell Titer Glo), Kasumi1; format: cell-based; settings: Homo sapiens, Kasumi 1, Table 7a, 72 hour incubation
Protocol: as §1, §2

[5] = system: A2780 ovarian cancer cell line; test: Cell viability assay (Cell Titer Glo), A2780; format: cell-based; settings: Homo sapiens, A2780, Table 7a, 72 hour incubation
Protocol: as §1, §2

[6] = system: A673 Ewingsarcoma cell line; test: Cell viability assay (Cell Titer Glo), A673; format: cell-based; settings: Homo sapiens, A673, Table 7a, 72 hour incubation
Protocol: as §1, §2

Chain of CDK7/CycH/MAT1 (P50613 whole entry): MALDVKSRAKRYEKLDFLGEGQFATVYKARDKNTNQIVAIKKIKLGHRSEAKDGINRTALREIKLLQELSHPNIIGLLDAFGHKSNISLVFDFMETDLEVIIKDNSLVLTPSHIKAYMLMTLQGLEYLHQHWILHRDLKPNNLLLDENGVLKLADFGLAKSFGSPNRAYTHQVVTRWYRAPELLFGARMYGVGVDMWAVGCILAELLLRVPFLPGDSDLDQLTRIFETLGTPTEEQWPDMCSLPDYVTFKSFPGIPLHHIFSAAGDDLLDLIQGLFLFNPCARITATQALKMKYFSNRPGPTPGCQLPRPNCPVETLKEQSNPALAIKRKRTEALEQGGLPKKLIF
Chain of CDK7/CycH/MAT1 (P51946 whole entry partner): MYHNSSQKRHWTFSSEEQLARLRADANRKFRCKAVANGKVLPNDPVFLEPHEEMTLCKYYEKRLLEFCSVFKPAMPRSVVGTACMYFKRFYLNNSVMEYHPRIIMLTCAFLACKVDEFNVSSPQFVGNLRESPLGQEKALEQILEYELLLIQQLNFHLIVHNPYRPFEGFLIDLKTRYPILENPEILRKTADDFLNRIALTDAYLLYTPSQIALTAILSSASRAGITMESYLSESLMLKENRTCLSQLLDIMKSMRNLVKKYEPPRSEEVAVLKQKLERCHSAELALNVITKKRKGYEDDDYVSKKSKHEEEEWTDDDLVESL
Chain of CDK7/CycH/MAT1 (P51948 whole entry partner): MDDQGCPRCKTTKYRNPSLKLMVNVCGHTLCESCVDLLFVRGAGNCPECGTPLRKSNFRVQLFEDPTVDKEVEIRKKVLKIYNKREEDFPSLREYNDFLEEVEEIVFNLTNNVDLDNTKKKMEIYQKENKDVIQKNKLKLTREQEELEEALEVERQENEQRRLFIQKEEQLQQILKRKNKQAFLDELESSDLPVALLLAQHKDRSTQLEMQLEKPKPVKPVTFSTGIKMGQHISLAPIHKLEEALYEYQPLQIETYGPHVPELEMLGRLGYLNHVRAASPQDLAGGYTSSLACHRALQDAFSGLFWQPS

| SMILES | IC50 [1] [nM] | IC50 [2] [µM] | IC50 [3] [µM] | IC50 [4] [µM] | IC50 [5] [µM] | IC50 [6] [µM] |
| --- | --- | --- | --- | --- | --- | --- |
| Fc1cccc(Nc2cc(O[C@@H]3CCNC3)nn3c(C4CC4)cnc23)c1 [Compound 6, (R)-3-cyclopropyl-N-(3-fluorophenyl)-6-(pyrrolidin-3-yloxy)imidazo[1,2-b]pyridazin-8-amine] | < 100 | 1 to 5 | < 1 | 1 to 5 | 1 to 5 | – |
| CC(C)c1cnc2c(NCc3ccc(F)cc3F)cc(SC3CCNCC3)nn12 [Compound 56, N-(2,4-difluorobenzyl)-3-isopropyl-6-(piperidin-4-ylthio)imidazo[1,2-b]pyridazin-8-amine hydrochloride] | < 100 | < 1 | < 1 | 1 to 5 | < 1 | – |
| CC(C)c1cnc2c(Nc3ccccc3C(F)(F)F)cc(SC3CCCNC3)nn12 (stereo not drawn) [Compound 61, 3-isopropyl-6-(piperidin-3-ylthio)-N-(2-(trifluoromethyl)phenyl) imidazo[1,2-b]pyridazin-8-amine hydrochloride] | 100 to 1000 | – | – | – | – | – |
| CC(C)c1cnc2c(NCc3ccccc3-n3cccn3)cc(SC3CCNCC3)nn12 [Compound 62, N-(2-(1H-pyrazol-1-yl)benzyl)-3-isopropyl-6-(piperidin-4-ylthio)imidazo[1,2-b]pyridazin-8-amine hydrochloride] | < 100 | < 1 | 1 to 5 | < 1 | – | 1 to 5 |
| CC(C)c1cnc2c(NCc3ccccc3-n3cccn3)cc(SC3CCCNC3)nn12 (stereo not drawn) [Compound 63, N-(2-(1H-pyrazol-1-yl)benzyl)-3-isopropyl-6-(piperidin-3-ylthio)imidazo[1,2-b]pyridazin-8-amine hydrochloride] | < 100 | < 1 | < 1 | < 1 | – | 1 to 5 |
| CC(C)c1cnc2c(NCc3ccccc3N(C)C)cc(SC3CCNCC3)nn12 [Compound 64, N-(2-(dimethylamino)benzyl)-3-isopropyl-6-(piperidin-4-ylthio)imidazo[1,2-b]pyridazin-8-amine hydrochloride] | < 100 | < 1 | 1 to 5 | < 1 | – | < 1 |
| CCOc1ccccc1CNc1cc(SC2CCNCC2)nn2c(C(C)C)cnc12 [Compound 65, N-(2-ethoxybenzyl)-3-isopropyl-6-(piperidin-4-ylthio)imidazo[1,2-b]pyridazin-8-amine hydrochloride] | < 100 | – | – | – | – | – |
| CC(C)c1cnc2c(NCc3ccccc3OC(F)F)cc(SC3CCNCC3)nn12 [Compound 66, N-(2-(difluoromethoxy)benzyl)-3-isopropyl-6-(piperidin-4-ylthio)imidazo[1,2-b]pyridazin-8-amine hydrochloride] | < 100 | < 1 | < 1 | 1 to 5 | – | < 1 |
| CC(C)Oc1ccccc1CNc1cc(SC2CCNCC2)nn2c(C(C)C)cnc12 [Compound 67, N-(2-isopropoxybenzyl)-3-isopropyl-6-(piperidin-4-ylthio)imidazo[1,2-b]pyridazin-8-amine hydrochloride] | < 100 | – | – | – | – | – |
| CC(C)c1cnc2c(NCc3ccccc3-n3cccn3)nc(SC3CCCNC3)cn12 (stereo not drawn) [Compound 68, N-(2-(1H-pyrazol-1-yl)benzyl)-3-isopropyl-6-(piperidin-3-ylthio)imidazo[1,2-α]pyrazin-8-amine hydrochloride] | < 100 | – | – | – | – | – |
| CC(C)c1cnc2c(NCc3ccccc3OC(F)(F)F)cc(OC3CCNCC3F)nn12 (stereo not drawn) [Compound 69, 6-((3-fluoropiperidin-4-yl)oxy)-3-isopropyl-N-(2-(trifluoromethoxy)benzyl)imidazo[1,2-b]pyridazin-8-amine hydrochloride] | 100 to 1000 | – | – | – | – | – |
| CC(C)c1cnc2c(NCc3ccccc3OC(F)(F)F)cc(OC3CCNCC3F)nn12 (stereo not drawn) [Compound 70, 6-((3-fluoropiperidin-4-yl)oxy)-3-isopropyl-N-(2-(trifluoromethoxy)benzyl)imidazo[1,2-b]pyridazin-8-amine hydrochloride] | < 100 | 1 to 5 | 1 to 5 | 1 to 5 | 1 to 5 | – |
| CC(C)c1cnc2c(NCc3ccccc3OC(F)(F)F)cc(OC3CCNCC3(F)F)nn12 (stereo not drawn) [Compound 71, 6-((3,3-difluoropiperidin-4-yl)oxy)-3-isopropyl-N-(2-(trifluoromethoxy)benzyl)imidazo[1,2-b]pyridazin-8-amine hydrochloride] | > 1000 | – | – | – | – | – |
| COc1cc(F)ccc1CNc1cc(SC2CCNCC2)nn2c(C(C)C)cnc12 [Compound 72, N-(4-fluoro-2-methoxybenzyl)-3-isopropyl-6-(piperidin-4-ylthio)imidazo[1,2-b]pyridazin-8-amine hydrochloride] | < 100 | – | – | – | – | – |
| COc1ccccc1CNc1cc(SC2CCNCC2F)nn2c(C(C)C)cnc12 (stereo not drawn) [Compound 73, 6-((3-fluoropiperidin-4-yl)thio)-3-isopropyl-N-(2-methoxybenzyl)imidazo[1,2-b]pyridazin-8-amine hydrochloride] | < 100 | 1 to 5 | 1 to 5 | 1 to 5 | 1 to 5 | – |
| CC(C)c1cnc2c(NCc3ccccc3OC(F)(F)F)cc(SC3CCNCC3F)nn12 (stereo not drawn) [Compound 74, 6-((3-fluoropiperidin-4-yl)thio)-3-isopropyl-N-(2-(trifluoromethoxy)benzyl)imidazo[1,2-b]pyridazin-8-amine hydrochloride] | 100 to 1000 | – | – | – | – | – |
| COc1ccccc1CNc1cc(SC2CCNCC2(F)F)nn2c(C(C)C)cnc12 (stereo not drawn) [Compound 75, 6-((3,3-difluoropiperidin-4-yl)thio)-3-isopropyl-N-(2-methoxybenzyl)imidazo[1,2-b]pyridazin-8-amine hydrochloride] | 100 to 1000 | – | – | – | – | – |

Other lines, results leading:

| IC50 [1] [nM] | IC50 [2] [µM] | IC50 [3] [µM] | IC50 [4] [µM] | IC50 [5] [µM] | IC50 [6] [µM] | SMILES |
| --- | --- | --- | --- | --- | --- | --- |
| 100 to 1000 | – | – | – | – | – | CC(C)c1cnc2c(NCc3ccccc3OC(F)(F)F)cc(SC3CCNCC3(F)F)nn12 (stereo not drawn) [Compound 76, 6-((3,3-difluoropiperidin-4-yl)thio)-3-)isopropyl-N-(2-(trifluoromethoxy)benzyl)imidazo[1,2-b]pyridazin-8-amine hydrochloride] |
| < 100 | 1 to 5 | 1 to 5 | 1 to 5 | 1 to 5 | – | CC(C)c1cnc2c(NCc3ccccc3C(F)(F)F)cc(SC3CCNCC3F)nn12 (stereo not drawn) [Compound 77, 6-((3-fluoropiperidin-4-yl)thio)-3-isopropyl-N-(2-(trifluoromethyl)benzyl)imidazo[1,2-b]pyridazin-8-amine hydrochloride] |
| < 100 | – | – | – | – | – | FC(F)(F)c1cnc2c(NCc3ccccc3)cc(SC3CCNCC3)nn12 [Compound 78, N-benzyl-6-(piperidin-4-ylthio)-3-(trifluoromethyl)imidazo[1,2-b]pyridazin-8-amine hydrochloride] |
| 100 to 1000 | – | – | – | – | – | COc1cc(F)ccc1CNc1cc(SC2CCCNC2)nn2c(C(C)C)cnc12 (stereo not drawn) [Compound 79, N-(4-fluoro-2-methoxybenzyl)-3-isopropyl-6-(piperidin-3-ylthio)imidazo[1,2-b]pyridazin-8-amine formate] |
| 100 to 1000 | – | – | – | – | – | CC(C)c1cnc2c(NCc3ccc(F)cc3C(F)(F)F)cc(SC3CCNCC3)nn12 [Compound 80, N-(4-fluoro-2-(trifluoromethyl)benzyl)-3-isopropyl-6-(piperidin-4-ylthio)imidazo[1,2-b]pyridazin-8-amine hydrochloride] |
| 100 to 1000 | – | – | – | – | – | CC(C)c1cnc2c(NCc3ccc(F)cc3C(F)(F)F)cc(SC3CCCNC3)nn12 (stereo not drawn) [Compound 81, N-(4-fluoro-2-(trifluoromethyl)benzyl)-3-isopropyl-6-(piperidin-3-ylthio)imidazo[1,2-b]pyridazin-8-amine hydrochloride] |
| < 100 | – | – | – | – | – | Fc1cccc(Nc2cc(O[C@H]3CCCNC3)nn3c(C(F)(F)F)cnc23)c1 [Compound 82, (S)-N-(3-fluorophenyl)-6-(piperidin-3-yloxy)-3-(trifluoromethyl)imidazo[1,2-b]pyridazin-8-amine hydrochloride] |
| 100 to 1000 | – | – | – | – | – | COc1ccccc1CNc1cc(OC2CCN(C)CC2)nn2c(C3CC3)cnc12 [Compound I-2] |
| < 100 | – | – | – | – | – | CC(C)c1cnc2c(NCc3ccccc3)cc(NC[C@H]3CCNC[C@@H]3O)nn12 [Compound I-3] |
| 100 to 1000 | – | – | – | – | – | CC(C)c1cnc2c(NCc3ccccc3)cc(NC[C@H]3CCCNC3)nn12 [Compound I-4] |
